Experimental data: US20220378738A1, “(+)-TRANS TETRAHYDROCANNABINOL ((+)-TRANS-THC) FOR USE AS A MEDICAMENT” (GW Research Limited, priority 2019, published 2022)
Marks after values point to notes of the source that are not given here.

Tests used:
[1] = system: mouse supramaximal electroshock seizure (MES) model of generalized seizures; assay: Maximal electroshock (MES) test, number of tonic convulsions; format: in vivo; settings: for % change from vehicle (number of tonic clonic seizures after MES): 250 mg/kg I.P., pre-treatment time 30 mins, N 16
Description: Mice were administered MES (30 mA, rectangular current: 0.6 ms pulse width, 0.2 s duration, 50 Hz) via corneal electrodes connected to a constant current shock generator (Ugo Basile: type 7801) to reliably produce tonic hind limb convulsions. The number of tonic convulsions was recorded.
Sixteen mice were studied per group. The test was performed blind.
The test substance, (+)-trans-THC, was evaluated at 4 doses (3, 10, 30 and 300 mg/kg), administered i.p. 60 minutes before MES, and compared with a vehicle control group (administered under the same experimental conditions).
Valproate (positive control) was administered at 250 mg/kg i.p. 30 minutes before MES, was used as a reference substance and was compared with a vehicle group (administered i.p. 60 minutes before MES).
Data was analysed by comparing treated groups with the appropriate vehicle control using 2-tailed Fisher's Exact Probability tests (p<0.05 considered significant).

[2] = depending on the assay; cited from earlier work
[3] = system: mouse model of pain, the hotplate test; assay: Hotplate test (52° C.), withdrawal threshold; format: in vivo; settings: for Withdrawal threshold (sec) Mean +/− SEM: N 13
Description: Mice underwent a minimum habituation period of 7 days prior to study commencement. Naïve mice were acclimatised to the procedure room in their home cages, with food and water available ad libitum.
Animals were treated with either treatment vehicle, (+)-trans-THC at 3, 10, 30 and 300 mg/kg at 10 ml/kg i.p. or Morphine 10 mg/kg or Morphine vehicle (Saline) at 10 ml/kg i.p.
Animals were placed onto a hot plate set at 52° C. and time to withdrawal threshold (first response of lifting, licking front or hind paws or trying to escape) was taken at 1-hour post treatment, or at 0.5 hour after the positive control.
Animals were culled by a schedule 1 method, immediately after the measurement.
Data were analysed by comparing withdrawal thresholds back to Vehicle treated group.

With `CCCC(CCC)C(=O)O` [Valproate] as the molecule, how does the “% change from vehicle (number of tonic clonic seizures after MES)” value [1] read?
Its value is 100.0%.

And the “% change from vehicle (number of tonic clonic seizures after MES)” value ([1]; listed as valproate)?
The value was 100%.

Which “Potency relative to the (+)-trans-THC isomer” value [2] does the source give for `CCCCCc1cc(O)c2c(c1)OC(C)(C)[C@@H]1CCC(C)=C[C@@H]21` [(−)-trans-THC, (−)-trans-tetrahydrocannabinol] here?
Its value is 6-100 times.

What does the source list for `CN1CC[C@]23c4c5ccc(O)c4O[C@H]2[C@@H](O)C=C[C@H]3[C@H]1C5` [Morphine]?
Withdrawal threshold (sec) Mean +/− SEM ([3]; 10 mg/kg I.P., 0.5 hour after treatment): 20.25 +/− 1.71 *** sec; Withdrawal threshold (sec) Mean +/− SEM ([3]; 10 mg/kg I.P., 0.5 hour after treatment, listed as morphine): significant increase in the withdrawal threshold compared to vehicle

Which “Anti-convulsant effect in the MES model (overall conclusion)” value ([1]; 3, 10, 30 and 300 mg/kg i.p.) does the source give for `CCCCCc1cc(O)c2c(c1)OC(C)(C)[C@H]1CCC(C)=C[C@H]21` (relative stereo) [(+)-trans-THC, (+)-trans-tetrahydrocannabinol] here?
The value was “no anti-convulsant effect”.

And the “Withdrawal threshold (sec) Mean +/− SEM” value ([3]; 3 mg/kg I.P., 1-hour post treatment)?
The value was 11.05 ± 0.72 s.

What about the “Withdrawal threshold (sec) Mean +/− SEM” value ([3]; 10 mg/kg I.P., 1-hour post treatment) of the same molecule?
The value was 12.63 ± 0.81 s.

What about the “Withdrawal threshold (sec) Mean +/− SEM” value ([3]; 30 mg/kg I.P., 1-hour post treatment) of the same molecule?
The value was 13.38 ± 1.03 s.

And the “Anti-nociceptive effect in an animal model of pain (overall conclusion)” value ([3]; hotplate, 3-300 mg/kg i.p.)?
The value was “exhibits an anti-nociceptive effect”.
